How the values were obtained:
[1] = target: rat P2X7 (Rattus norvegicus (Rat), UniProt Q64663); test: Rat P2X7 functional assay (Ca2+ influx, Fluo-4, FDSS); assay type: cell-based; conditions: HEK293 cells stably expressing rat P2X7; BzATP final 10 microM; 7-point dose-response; read-out: Antagonistic activities with respect to the rat P2X7 receptor (IC50)
How it was run: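 IC50 derived from 7-point dose-response in duplicate, measuring inhibition of BzATP-evoked (final 10 microM) intracellular Ca2+ increase by Fluo-4 fluorescence on FDSS. Rat P2X7-HEK293 cells were exposed to compound for 10 min in the dark beforehand.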

[2] = target: human P2X7 (Homo sapiens (Human), UniProt Q99572); test: Human P2X7 functional assay (Ca2+ influx, Fluo-4, FDSS); assay type: cell-based; conditions: antagonistic activity with respect to the human P2X7 receptor; BzATP final concentration 80 microM
How it was run: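 Ca2+ influx was triggered with BzATP (80 μM final) after a 10-min room-temperature compound preincubation and monitored with Fluo-4 (ex 480/em 540 nm) on FDSS. The cells were HEK293 stably carrying FLAG-tagged human P2X7. Duplicate-averaged 7-point dose-responses gave IC50s.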

Chain of rat P2X7 (Q64663 whole entry): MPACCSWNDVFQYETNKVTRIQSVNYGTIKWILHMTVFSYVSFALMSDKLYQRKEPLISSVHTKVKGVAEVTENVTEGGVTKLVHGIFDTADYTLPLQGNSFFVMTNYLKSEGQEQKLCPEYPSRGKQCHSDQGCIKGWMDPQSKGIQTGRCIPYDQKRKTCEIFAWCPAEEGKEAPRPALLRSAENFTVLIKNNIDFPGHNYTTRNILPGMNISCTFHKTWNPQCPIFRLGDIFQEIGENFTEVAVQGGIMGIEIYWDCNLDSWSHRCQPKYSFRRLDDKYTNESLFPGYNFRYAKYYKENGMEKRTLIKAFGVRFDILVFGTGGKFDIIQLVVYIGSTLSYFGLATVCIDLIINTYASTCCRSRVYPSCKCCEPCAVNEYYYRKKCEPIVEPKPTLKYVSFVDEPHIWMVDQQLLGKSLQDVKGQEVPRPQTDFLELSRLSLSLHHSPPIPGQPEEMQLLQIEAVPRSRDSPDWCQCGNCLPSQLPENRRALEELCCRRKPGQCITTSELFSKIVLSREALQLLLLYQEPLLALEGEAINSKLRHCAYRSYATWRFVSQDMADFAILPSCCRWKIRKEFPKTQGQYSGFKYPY
Chain of human P2X7 (Q99572 whole entry): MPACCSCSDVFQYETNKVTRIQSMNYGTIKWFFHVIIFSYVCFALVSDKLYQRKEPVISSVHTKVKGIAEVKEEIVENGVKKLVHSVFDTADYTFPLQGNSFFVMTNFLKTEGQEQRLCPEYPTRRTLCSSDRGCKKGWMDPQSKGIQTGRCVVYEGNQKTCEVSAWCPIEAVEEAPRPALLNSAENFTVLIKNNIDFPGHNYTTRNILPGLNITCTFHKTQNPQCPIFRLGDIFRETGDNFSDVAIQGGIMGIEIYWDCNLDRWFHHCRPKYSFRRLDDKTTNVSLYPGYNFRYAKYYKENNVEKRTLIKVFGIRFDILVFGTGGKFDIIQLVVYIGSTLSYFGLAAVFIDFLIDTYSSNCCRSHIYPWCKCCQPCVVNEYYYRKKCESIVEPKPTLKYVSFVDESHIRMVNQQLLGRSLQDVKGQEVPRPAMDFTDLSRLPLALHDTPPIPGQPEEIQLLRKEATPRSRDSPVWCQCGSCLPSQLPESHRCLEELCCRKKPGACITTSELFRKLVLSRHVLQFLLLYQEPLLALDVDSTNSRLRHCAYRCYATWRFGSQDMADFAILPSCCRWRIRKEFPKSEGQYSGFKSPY

IC50 [1]	IC50 [2]	Compound
< 1000 nM	< 50 nM	NCC1(O)CCC(F)(C(=O)NCc2cccc(C(F)(F)F)c2Cl)c2cccnc21 (stereo not shown) [Example 48, 8-(aminomethyl)-N-(2-chloro-3-(trifluoro-methyl)benzyl)-5-fluoro-8-hy-droxy-5,6,7,8-tetra-hydroquinoline-5-carboxamide]
< 1000 nM	< 50 nM	CNCC1(O)CCC(F)(C(=O)NCc2cccc(C(F)(F)F)c2Cl)c2cccnc21 (stereo not shown) [Example 49, N-(2-chloro-3-(trifluorometh-yl)benzyl)-5-fluoro-8-hydroxy-8-((methylamino)meth-yl)-5,6,7,8-tetrahydroquinoline-5-carboxamide]
< 1000 nM	< 50 nM	CN(C)CC1(O)CCC(F)(C(=O)NCc2cccc(C(F)(F)F)c2Cl)c2cccnc21 (stereo not shown) [Example 50, N-(2-chloro-3-(trifluoro-methyl)benzyl)-8-((di-methylamino)methyl)-5-fluoro-8-hydroxy-5,6,7,8-tetrahydroquinoline-5-carboxamide]
< 1000 nM	< 50 nM	CC1(O)CCC(F)(C(=O)NCc2cccc(C(F)(F)F)c2Cl)c2cccnc21 (stereo not shown) [Example 58, N-(2-chloro-3-(trifluoro-methyl)benzyl)-5-fluoro-8-hydroxy-8-methyl-5,6,7,8-tetrahydro-quinoline-5-carboxamide]
< 1000 nM	< 50 nM	O=C(NCc1ccc(Cl)cc1Cl)[C@@H]1CC[C@H](O)c2ncccc21 [Example 66, (5R,8S)-N-(2,4-dichloro-benzyl)-8-hydroxy-5,6,7,8-tetrahydroquinoline-5-carboxamide]
< 1000 nM	101 to 300 nM	O=C(NCc1ccc(F)cc1Cl)[C@H]1CC[C@H](O)c2ncccc21 [Example 67, (5S,8S)-N-(2-chloro-4-fluorobenzyl)-8-hydroxy-5,6,7,8-tetrahydroquinoline-5-carboxamide]
< 1000 nM	< 50 nM	O=C(NCc1ccc(F)cc1Cl)[C@@H]1CC[C@H](O)c2ncccc21 [Example 68, (5R,8S)-N-(2-chloro-4-fluorobenzyl)-8-hydroxy-5,6,7,8-tetrahydroquinoline-5-carboxamide]
< 1000 nM	< 50 nM	O=C(NCc1c(F)cc(Cl)cc1Cl)[C@@H]1CC[C@H](O)c2ncccc21 [Example 70, (5R,8S)-N-(2,4-dichloro-6-fluorobenzyl)-8-hy-droxy-5,6,7,8-tetrahydro-quinoline-5-carboxamide]
< 1000 nM	< 50 nM	O=C(NCc1ccc(F)c(F)c1F)[C@@H]1CC[C@H](O)c2ncccc21 [Example 72, (5R,8S)-8-hydroxy-N-(2,3,4-trifluorobenzyl)-5,6,7,8-tetrahydroquinoline-5-carboxamide]
< 1000 nM	101 to 300 nM	O=C(NCc1ccc(F)cc1F)[C@@H]1CC[C@H](O)c2ncccc21 [Example 74, (5R,8S)-N-(2,4-difluoro-benzyl)-8-hydroxy-5,6,7,8-tetrahydroquinoline-5-carboxamide]
< 1000 nM	50 to 100 nM	O=C(NCc1ccc(F)cc1C(F)(F)F)[C@@H]1CC[C@H](O)c2ncccc21 [Example 76, (5R,8S)-N-(4-fluoro-2-(tri-fluromethyl)benzyl)-8-hydroxy-5,6,7,8-tetra-hydroquinoline-5-carboxamide]
< 1000 nM	< 50 nM	O=C(NCc1ccc(Cl)cc1F)[C@@H]1CC[C@H](O)c2ncccc21 [Example 78, (5R,8S)-N-(4-chloro-2-fluorobenzyl)-8-hydroxy-5,6,7,8-tetrahydroquinoline-5-carboxamide]
< 1000 nM	50 to 100 nM	O=C(NCc1ccc(Br)cc1F)[C@@H]1CC[C@H](O)c2ncccc21 [Example 80, (5R,8S)-N-(4-bromo-2-fluorobenzyl)-8-hydroxy-5,6,7,8-tetrahydroquinoline-5-carboxamide]
< 1000 nM	< 50 nM	O=C(NCc1ccc(F)c(F)c1Cl)[C@H]1CC[C@H](O)c2ncccc21 [Example 81, (5S,8S)-N-(2-chloro-3,4-difluorobenzyl)-8-hy-droxy-5,6,7,8-tetrahydro-auinoline-5-carboxamide]
< 1000 nM	< 50 nM	O=C(NCc1ccc(F)c(F)c1Cl)[C@@H]1CC[C@H](O)c2ncccc21 [Example 82, (5R,8S)-N-(2-chloro-3,4-difluorobenzyl)-8-hy-droxy-5,6,7,8-tetrahydro-quinoline-5-carboxamide]
< 1000 nM	101 to 300 nM	Cc1cc(Cl)cc(Cl)c1CNC(=O)[C@H]1C[C@H](O)c2ncccc21 [Example 83, (5S,7S)-N-(2,4-dichloro-6-methylbenzyl)-7-hy-droxy-5,7-dihydro-5H-cyclopenta[b]pyridin-5-carboxamide]
< 1000 nM	< 50 nM	Cc1cc(Cl)cc(Cl)c1CNC(=O)[C@@H]1CC[C@@H](O)c2ncccc21 [Example 84, (5R,8R)-N-(2,4-dichloro-6-methylbenzyl)-8-hy-droxy-5,6,7,8-tetrahydro-quinoline-5-carboxamide]
< 1000 nM	< 50 nM	Cc1cc(Cl)cc(Cl)c1CNC(=O)[C@H]1CC[C@@H](O)c2ncccc21 [Example 85, (5S,8R)-N-(2,4-dichloro-6-methylbenzyl)-8-hy-droxy-5,6,7,8-tetrahydro-quinoline-5-carboxamide]
< 1000 nM	50 to 100 nM	O=C(NCc1ccc(Cl)cc1Cl)[C@@H]1CC[C@@H](O)c2ncccc21 [Example 87, (5R,8R)-N-(2,4-dichloro-benzyl)-8-hydroxy-5,6,7,8-tetrahydroquinoline-5-carboxamide]
< 1000 nM	< 50 nM	O=C(NCc1ccc(Cl)cc1Cl)[C@H]1CC[C@@H](O)c2ncccc21 [Example 88, (5S,8R)-N-(2,4-dichloro-benzyl)-8-hydroxy-5,6,7,8-tetrahydroquinoline-5-carboxamide]
< 1000 nM	101 to 300 nM	O=C(NCc1ccc(F)cc1Cl)[C@@H]1CC[C@@H](O)c2ncccc21 [Example 89, (5R,8R)-N-(2-chloro-4-fluorobenzyl)-8-hydroxy-5,6,7,8-tetrahydroquinoline-5-carboxamide]
< 1000 nM	< 50 nM	Cc1cc(Cl)cc(Cl)c1CNC(=O)[C@@H]1C[C@@H](O)c2ncccc21 [Example 97, (5R,7R)-N-(2,4-dichloro-6-methylbenzyl)-7-hy-droxy-6,7-dihydro-5H-cyclopenta[b]pyridin-5-carboxamide]
< 1000 nM	< 50 nM	Cc1cc(Cl)cc(Cl)c1CNC(=O)[C@]1(F)CC[C@@H](O)c2ncccc21 [Example 100, (5S,8R)-N-(2,4-dichloro-6-methylbenzyl)-5-fluoro-8-hydroxy-5,6,7,8-tetrahydroquinoline-5-carboxamide]
< 1000 nM	< 50 nM	O=C(NCc1cccc(C(F)(F)F)c1Cl)[C@]1(F)CC[C@@H](O)c2ncccc21 [Example 102, (5S,8R)-N-(2-chloro-3-(trifluoromethyl)benzyl)-5-fluoro-8-hydroxy-5,6,7,8-tetrahydroquinoline-5-carboxamide]
< 1000 nM	< 50 nM	O=C(NCc1c(Cl)cc(Cl)cc1CO)[C@]1(F)CC[C@@H](O)c2ncccc21 [Example 104]
< 1000 nM	< 50 nM	O=C(NCc1ccc(Cl)cc1Cl)[C@]1(F)CC[C@@H](O)c2ncccc21 [Example 106, (5S,8R)-N-(2,4-dichlorobenzyl)-5-fluoro-8-hydroxy-5,6,7,8-tetrahydroquinoline-5-carboxamide]

Source: patent US11077100B2, “Tetrahydroquinoline derivatives as P2X7 receptor antagonists” (RaQualia Pharma Inc., priority 2017, dated 2021)
